Laboratory results as given in patent publication US20230303486A1, “CYCLOBUTYL-UREA DERIVATIVES” (Idorsia Pharmaceuticals Ltd, priority 2020, published 2023).
Like-named read-outs stand apart in the source and are kept apart here.

Test system: primary neuronal cultures from embryonic rat brains
Assay: Rat oscillation assay (FLIPR, neuronal calcium oscillations)
Type: cell-based
Procedure: This assay is a functional phenotypic assay designed to mimic epileptic seizures using primary neuronal cultures from embryonic rat brains, which form a functional neuronal network that generate synchronized intracellular calcium concentration oscillations when cultured at high density in 384-well plate. The epileptic phenotype is induced by incubating the neurons in magnesium-free assay buffer, that results in increased probability of NMDA receptor activation, leading to an increased frequency and amplitude of intracellular calcium oscillations. Once neurons are incubated with the calcium indicator dye Fluo-8 AM (Tebu-bio), neuronal calcium oscillations can be monitored in real time using FLIPR® Tetra (fluorometric plate reader, Molecular Devices). With these recordings, the effect of anti-epileptic drugs can be quantified. The anti-epileptic effect of compounds, which activate directly or indirectly the Kv7 channels can be modulated by the Kv7 channel blocker XE-991. The assay was performed as described previously (Pacico N, Mingorance-Le Meur A. New In Vitro Phenotypic Assay for Epilepsy: Fluorescent Measurement of Synchronized Neuronal Calcium Oscillations. PLoS ONE 9(1) 2014) with modifications described hereafter.
Animal care followed standard procedures in accordance with swiss institutional guidelines. Dissociated neuronal cultures were obtained from cerebral cortices of embryonic Wistar rats at embryonic stage E18 (Charles River). The uterine horns were removed by caesarian surgery from deeply anesthetized rats (Isofurane) and sacrificed by decapitation. The embryos were decapitated by closing forceps. The brains were isolated and dissected one by one in ice-cold PBS (Life Technologies) under optical control using a binocular. Meninges, olfactory bulbs, and basal ganglia were removed. Cortical hemispheres (still including the hippocampus) were cut in small pieces with tweezers and placed on ice in prechilled Hibernate-E medium (Life technology). The hemispheres were then incubated in 10 mL of Hibernate-E containing 15 U/mL papain (Worthington) for 25 min at 30° C. with gentle mixing every 10 min. Genomic DNA was then digested by prolonging the incubation during 10 min at 37° C. in presence of 4 U/mL rDNase I (Ambion). The obtained suspension was then centrifuged at 800 g for 5 min and the cell pellet was resuspended in 2 mL Hibernate-E and gently dissociated by pipetting up and down 10 times with a plastic Pasteur pipette resulting in a homogenous cell suspension. This suspension was immediately filtered through a 70 µm cell strainer (MACS® SmartStrainer, Miltenyi), collected in 10 mL Hibernate-E and centrifuged at 800 g for 5 min. The cell pellet was resuspended in Neurobasal medium, supplemented with 2% B-27, 0.5 mM Glutamax-I, 100 U/mL penicillin, 100 µg/mL streptomycin (Life Technologies) and diluted at the final concentration of 300′000 cells/mL. One day before plating the cells, 384-well plates were coated with 25 µL/well of 0.1 % poly-L-lysine solution (Sigma), incubated overnight at 37° C., washed two times with sterile distilled water and allowed to dry at room temperature for >2 h. The neurons were seeded at a density of 15′000 cells/well in 50 µL/well in a 384-well black, clear-bottomed plates (Corning) and subsequently maintained in an incubator at 37° C., 5% CO2 and 95% humidity for 8 to 10 days. After 3 and 7 days, 40% of media was renewed under sterile conditions.
Neurons seeded in the assay plates were washed with Hank’s balanced salt solution (HBSS) devoid of Ca^2+ and Mg^2+, supplemented with 20 mM HEPES (Life Technologies) and 2 mM CaCl2 (Sigma), pH 7.4 (hereafter called Assay buffer) using a Biotek EL406 plate washer. Neurons were loaded with 1 µM Fluo-8 AM in Assay buffer for 15 min at 37° C., 5% CO2. […]

[1] = Rattus norvegicus, 20 min, 20 min after compound addition, AUC of fluorescence, read-out: FLIPR: IC50 [nM] 20 min
[2] = Rattus norvegicus, Cortical neurone, acute phase, ratio of AUC fluorescence before and after compound addition, rat cortical neurons, Mg-free buffer, read-out: FLIPR: IC50 [nM] acute
[3] = 20 min after compound addition, AUC of fluorescence, read-out: FLIPR: IC50 [nM] 20 min
[4] = acute phase, ratio of AUC fluorescence before and after compound addition, rat cortical neurons, Mg-free buffer, read-out: FLIPR: IC50 [nM] acute

Structure (SMILES)	IC50 [1]	IC50 [2]	IC50 [3]	IC50 [4]
COCC(NC(=O)NC1CC(C(F)F)C1)c1ccnc(OCC(F)(F)F)c1 (racemic) [Example 31, (±)-1-(3-Difluoromethyl-Cyclobutyl)-3-{2-Methoxy-1-[2-(2,2,2-Trifluoro-Ethoxy)-Pyridin-4-yl]-Ethyl}-Urea]	763 nM	190 nM		
COCC(NC(=O)NC1CC(C(F)(F)F)C1)c1ccnc(OCC(F)(F)F)c1 (racemic) [Example 32, (±)-1-{2-Methoxy-1-[2-(2,2,2-Trifluoro-Ethoxy)-Pyridin-4-yl]-Ethyl}-3-(3-Trifluoromethyl-Cyclobutyl)-Urea]	303 nM	67 nM		
CC(NC(=O)NC1CC(C(F)F)C1)c1ccnc(OC(F)F)c1 (racemic) [Example 33, (±)-1-[1-(2-Difluoromethoxy-Pyridin-4-yl)-Ethyl]-3-(3-Difluoromethyl-Cyclobutyl)-Urea]	1510 nM	946 nM		
Cc1nc(OCC(F)(F)F)cc(C(C)NC(=O)NC23CC(C(F)(F)F)(C2)C3)n1 (racemic) [Example 34, (±)-1-{1-[2-Methyl-6-(2,2,2-Trifluoro-Ethoxy)-Pyrimidin-4-yl]-Ethyl}-3-(3-Trifluoromethyl-Bicyclo[1.1.1]Pent-1-yl)-Urea]	291 nM	247 nM		
O=C(NCc1cccc(C(F)(F)F)c1)NC1CC(C(F)(F)F)C1 (single isomer, unassigned) [Example 50, 1-(3-(Trifluoromethyl)Benzyl)-3-(3-(Trifluoromethyl)Cyclobutyl)Urea]			82 nM	68 nM
O=C(NCc1cccc(C(F)(F)F)c1)NC1CC(C(F)(F)F)C1 (single isomer, unassigned) [Example 51, 1-(3-(Trifluoromethyl)Benzyl)-3-(3-(Trifluoromethyl)Cyclobutyl)Urea]			515 nM	363 nM
O=C(NCc1cccc(C(F)(F)F)c1)NC1CC(C(F)F)C1 (single isomer, unassigned) [Example 52, 1-(3-(Difluoromethyl)Cyclobutyl)-3-(3-(Trifluoromethyl)Benzyl)Urea]			738 nM	660 nM
Cc1nc(OCC(F)(F)F)cc([C@H](C)NC(=O)NC23CC(C(F)(F)F)(C2)C3)n1 (single isomer, unassigned) [Example 54]	216 nM	218 nM		
O=C(NCc1ccnc(OCC(F)(F)F)c1)NC1CC(C(F)F)C1 (single isomer, unassigned) [Example 55, 1-(3-(Difluoromethyl)Cyclobutyl)-3-((2-(2,2,2-Trifluoroethoxy)Pyridin-4-yl)Methyl)Urea]			1160 nM	701 nM
O=C(NCc1ccnc(OCC(F)(F)F)c1)NC1CC(C(F)F)C1 (single isomer, unassigned) [Example 56, 1-(3-(Difluoromethyl)Cyclobutyl)-3-((2-(2,2,2-Trifluoroethoxy)Pyridin-4-yl)Methyl)Urea]			547 nM	123 nM
C[C@H](NC(=O)NC1CC(C(F)F)C1)c1cccc(OC(F)(F)F)c1 (single isomer, unassigned) [Example 57]			314 nM	146 nM
C[C@H](NC(=O)NC1CC(C(F)F)C1)c1cccc(OC(F)(F)F)c1 (single isomer, unassigned) [Example 58]			105 nM	51 nM
O=C(NCc1cccc(C(F)(F)F)c1)NC1CC(F)(F)C1 [Example 1, 1-(3,3-Difluoro-Cyclobutyl)-3-(3-Trifluoromethyl-Benzyl)-Urea]	855 nM	486 nM		
CC(NC(=O)NC12CC(C1)C2)c1cccc(C(F)(F)F)c1 (centres unmarked) [Example 2, 1-Bicyclo[1.1.1]Pent-1-yl-3-[1-(3-Trifluoromethyl-Phenyl)-Ethyl]-Urea]	466 nM	291 nM		
CC(NC(=O)NC1CC(C(F)F)C1)c1cccc(C(F)(F)F)c1 (centres unmarked) [Example 3, 1-(3-Difluoromethyl-cyclobutyl)-3-[1-(3-trifluoromethylphenyl)-ethyl]-urea]	334 nM	188 nM		
CC(NC(=O)NC12CC(F)(C1)C2)c1cccc(C(F)(F)F)c1 (centres unmarked) [Example 4, 1-(3-Fluoro-bicyclo[1.1.1]pent-1-yl)-3-[1-(3-trifluoromethylphenyl)-ethyl]-urea]	1060 nM	138 nM		
CC(NC(=O)NC12CC(C(F)F)(C1)C2)c1cccc(C(F)(F)F)c1 (centres unmarked) [Example 5, 1-(3-Difluoromethyl-bicyclo[1.1.1]pent-1-yl)-3-[1-(3-trifluoromethyl-phenyl)-ethyl]-urea]	216 nM	296 nM		
CC(NC(=O)NC12CC(C1)C2)c1cccc(OC(F)(F)F)c1 (centres unmarked) [Example 6, 1-Bicyclo[1.1.1]Pent-1-yl-3-[1-(3-Trifluoromethoxy-Phenyl)-Ethyl]-Urea]	271 nM	126 nM		
CC(NC(=O)NC1CC(C(F)F)C1)c1cccc(OC(F)(F)F)c1 (centres unmarked) [Example 7, 1-(3-Difluoromethyl-cyclobutyl)-3-[1-(3-trifluoromethoxyphenyl)-ethyl]-urea]	100 nM	63 nM		
CC(NC(=O)NC12CC(F)(C1)C2)c1cccc(OC(F)(F)F)c1 (centres unmarked) [Example 8, 1-(3-Fluoro-bicyclo[1.1.1]pent-1-yl)-3-[1-(3-trifluoromethoxyphenyl)-ethyl]-urea]	331 nM	168 nM		
O=C(NC1CC(O)(C(F)(F)F)C1)NC(c1cccc(C(F)(F)F)c1)C(F)F (centres unmarked) [Example 9, 1-[2,2-Difluoro-1-(3-Trifluoromethyl-Phenyl)-Ethyl]-3-(3-Hydroxy-3-Trifluoromethyl-Cyclobutyl)-Urea]	1420 nM	766 nM		
CC1(NC(=O)NC(c2cccc(C(F)(F)F)c2)C(F)F)CC(F)(F)C1 (centres unmarked) [Example 10, 1-(3,3-Difluoro-1-Methyl-Cyclobutyl)-3-[2,2-Difluoro-1-(3-TrifluoromethylPhenyl)-Ethyl]-Urea]	51 nM	57 nM		
CC(NC(=O)NC12CC(C1)C2)c1cccc(OC(F)F)c1 (centres unmarked) [Example 11, 1-Bicyclo[1.1.1]Pent-1-yl-3-[1-(3-Difluoromethoxy-Phenyl)-Ethyl]-Urea]	1360 nM	741 nM		
O=C(NC(CO)c1cccc(C(F)(F)F)c1)NC12CC(C(F)F)(C1)C2 (centres unmarked) [Example 12, 1-(3-Difluoromethyl-Bicyclo[1.1.1]Pent-1-yl)-3-[2-Hydroxy-1-(3-Trifluoromethyl-Phenyl)-Ethyl]-Urea]	164 nM	154 nM		
O=C(NC(c1cccc(C(F)(F)F)c1)C(F)F)NC12CC(C(F)F)(C1)C2 (centres unmarked) [Example 13, 1-(3-Difluoromethyl-bicyclo[1.1.1]pent-1-yl)-3-[2,2-difluoro-1-(3-trifluoromethyl-phenyl)-ethyl]-urea]	41 nM	14 nM		
COCC(NC(=O)NC12CC(C(F)F)(C1)C2)c1cccc(C(F)(F)F)c1 (centres unmarked) [Example 14, 1-(3-Difluoromethyl-bicyclo[1.1.1]pent-1-yl)-3-[2-methoxy-1-(3-trifluoromethyl-phenyl)-ethyl]-urea]	79 nM	37 nM		
O=C(NCc1cccc(C(F)(F)F)c1F)NC12CC(C(F)F)(C1)C2 [Example 15, 1-(3-Difluoromethyl-bicyclo[1.1.1]pent-1-yl)-3-(2-fluoro-3-trifluoromethyl-benzyl)-urea]	960 nM	619 nM		
O=C(NCc1cc(F)cc(C(F)(F)F)c1)NC12CC(C(F)F)(C1)C2 [Example 16, 1-(3-Difluoromethyl-bicyclo[1.1.1]pent-1-yl)-3-(3-fluoro-5-trifluoromethyl-benzyl)-urea]	848 nM	716 nM		
